Assay results published in article PMC11170107, “Development of a new hazard scoring system in primary neuronal cell cultures for drug-induced acute neuronal toxicity identification in early drug discovery” (Frontiers in Pharmacology, 2024).
Entries after “also recorded” stand apart in the source; their conditions may differ.

Key:
[1] = cited from earlier work; for Free Cmax highest: Supplementary Table S1
[2] = WHO adverse drug reactions VigiBase; ref Kumlien and Lundberg, 2010; cited from earlier work
[3] = seizure ADR frequency in SIDER; ref Campillos et al., 2008; Kuhn et al., 2010; cited from earlier work
[4] = ref National library of medicine, Daylimed; cited from earlier work
[5] = system: rat primary cortical neurons; assay: MEA hazard scoring in rat primary cortical neuronal cultures; details: for Area.Under.Cross.Correlation Lower.TI / Area.Under.Cross.Correlation Upper.TI / Burst.Duration...Avg.(s. Lower.TI) / Burst.Duration...Avg.(s. Upper.TI) / Mean.Firing.Rate..Hz. Lower.TI / Mean.Firing.Rate..Hz. Upper.TI / Median.Mean.ISI Lower.TI / Median.Mean.ISI Upper.TI: statistical tolerance interval of the ΔΔ% effect, One-sided interval; for hazard classification in the hazard scoring system: rat primary neurons on MEA
Procedure: At DIV28, spontaneous neuronal activity obtained for 30 min in culture solution was defined as the baseline.
Data analysis was captured using AxIs suite software (Axion Biosystems Inc., version 3.6.2) and further analyzed using GraphPad Prism (version 9.00; GraphPad Software Inc., San Diego, CA). […] An active well should have more than 40% active electrodes. All wells below this threshold were discarded upon these quality criteria. For the downstream statistical analysis, the data on each MEA parameter was first expressed as the ratio of exposed wells (percentage change between baseline and the treatment) and then normalized to the average of the control within the same plate. i.e., Baseline corrected ratios of n= 7 or eight wells were averaged per condition. Each well of the MEA served as its own control, and the changes in the electrical activity elicited by the treatments were expressed as a percentage of that control activity and normalized to the wells treated with the vehicle control dimethyl sulfoxide (DMSO). […] Differences were determined using the non-parametric Wilcoxon Mann Whitney test; p-values below 0.05 were considered significant. Data are expressed as means ± S.E.M.
Thereafter, based on the effects of vehicles and positive controls, we determined the cut-off points between the different effect zones according to the key parameters selected as described in the previous subsection. The zones were defined as follows. The “no effect” zone reflects parameter changes that are most likely within vehicle variability. The “mild” and “strong” zones are differentiated bidirectionally showing mild and strong effects.
The respective hazard class was determined by a cumulative scoring of individual parameters using a scoring matrix, which was based on the following three fundamental components: (1) selection of the six key relevant parameters, (2) defining the cutoffs for the level of effect, and (3) defining weighted points per parameter for the level of hazard potential. The scoring matrix concluded with the addition of a weighted point algorithm to discriminate distinct degrees of neuronal hazard. […] The weighted points were defined on the importance of a parameter (and the direction of effect), as well as the identification of an expected hazard for different pharmacological modes of action. The overall hazard score is derived from the sum of all weighted parameters, which could be converted into a specific hazard label. The weighted points and total score range associated with the various hazard labels were optimized using an iterative process.

[6] = established from VigiBase, SIDER, Elsevier drug information and FDA prescribing information

Molecule | Free Cmax highest [1] [µM] | Percentage seizures of total number of ADRs [2] [%] | SIDER ADR on-/off-label [3] | FDA prescription information at therapeutic dose (Convulsion/ Seizure/Lower the seizure threshold/withdrawal) [4] | Classification* (degree of seizure risk) [6] | other results
CN(C)CCC=C1c2ccccc2CCc2ccccc21 [Amitriptyline] | 0.173 | 1.447 | no frequency information | not found on label |  | Area.Under.Cross.Correlation Lower.TI [5]: -100; Area.Under.Cross.Correlation Upper.TI [5]: -28.75; Burst.Duration...Avg.(s. Lower.TI) [5]: -100; Burst.Duration...Avg.(s. Upper.TI) [5]: 2740; Mean.Firing.Rate..Hz. Lower.TI [5]: -100; Mean.Firing.Rate..Hz. Upper.TI [5]: -25.19; Median.Mean.ISI Lower.TI [5]: -60.49; Median.Mean.ISI Upper.TI [5]: 9.96
CC(=O)Oc1ccccc1C(=O)O [Aspirin] | 43.4 | 0.216 | not found on label | not found on label | No risk | 
COC(=O)C1=C(C)NC(C)=C([N+](=O)[O-])C1c1ccccc1C(F)(F)F (centres unmarked) [BayK 8644] |  |  |  |  | No risk | 
CC(C)C[C@H]1C(=O)N2CCC[C@H]2[C@]2(O)O[C@](NC(=O)[C@@H]3C=C4c5cccc6[nH]c(Br)c(c56)C[C@H]4N(C)C3)(C(C)C)C(=O)N12 [Bromocriptine] | 0.0014 | 3.063 | postmarketing | On label | Risk | 
Cn1c(=O)c2c(ncn2C)n(C)c1=O [Caffeine] | 23.3 |  |  |  |  | Area.Under.Cross.Correlation Lower.TI [5]: 6.336; Area.Under.Cross.Correlation Upper.TI [5]: 111.5; Burst.Duration...Avg.(s. Lower.TI) [5]: -5.73; Burst.Duration...Avg.(s. Upper.TI) [5]: 16.22; Mean.Firing.Rate..Hz. Lower.TI [5]: 8.914; Mean.Firing.Rate..Hz. Upper.TI [5]: 94.17; Median.Mean.ISI Lower.TI [5]: -1.251; Median.Mean.ISI Upper.TI [5]: 10.27
Cc1ccc(-c2cc(C(F)(F)F)nn2-c2ccc(S(N)(=O)=O)cc2)cc1 [Celecoxib] | 0.41 | 0.3553 | not found on label | not found on label |  | hazard classification in the hazard scoring system [5]: high hazard
NS(=O)(=O)c1cc2c(cc1Cl)NC(C1CC3C=CC1C3)NS2(=O)=O (centres unmarked) [Cyclothiazide] | 3 | 0 |  |  | Risk | 
C[C@]12N[C@H](Cc3ccccc31)c1ccccc12 [Dizocilpine (MK-801), Dizocilpine] |  |  |  |  |  | Area.Under.Cross.Correlation Lower.TI [5]: -94.33; Area.Under.Cross.Correlation Upper.TI [5]: -47.25; Burst.Duration...Avg.(s. Lower.TI) [5]: -41.38; Burst.Duration...Avg.(s. Upper.TI) [5]: 248.8; Mean.Firing.Rate..Hz. Lower.TI [5]: -92.35; Mean.Firing.Rate..Hz. Upper.TI [5]: -66.07; Median.Mean.ISI Lower.TI [5]: -38.05; Median.Mean.ISI Upper.TI [5]: 23.07
N[C@@]1(C(=O)O)CC[C@H]2[C@H](C(=O)O)[C@H]21 [Eglumetad (LY354740), Eglumetad] |  |  |  |  | Risk | 
CCN(CC)C(=O)/C(C#N)=C/c1cc(O)c(O)c([N+](=O)[O-])c1 [Entacapone] | 0.13 | 0.4204 | no frequency information | not found on label | Risk | 
CCN1C(=O)OC(C)(C)C1=O [Ethadione] |  |  |  |  | Risk | 
NC(=O)OCC(COC(N)=O)c1ccccc1 [Felbamate] | 181 | 9.4112 | not found on label | on label | Low risk | 
CNCCC(Oc1ccc(C(F)(F)F)cc1)c1ccccc1 (centres unmarked) [Fluoxetine] | 0.47 | 1.97 | uncommon | On label | Risk | 
COc1ccc(COc2ccc(Cc3cnc(N)nc3N)cc2OC)cc1 [GW-2580] |  |  |  |  | Risk | 
NN [Hydrazine] |  |  |  |  | Risk | 
COc1cc(C(C)=O)ccc1OCCCN1CCC(c2noc3cc(F)ccc23)CC1 [Iloperidone] | 0.012 | 1.653 | not found on label | not found on label | Low risk | 
NC(CCP(=O)(O)O)C(=O)O [L-AP 4] |  |  |  |  | Risk | 
C[C@](N)(Cc1ccc(O)c(O)c1)C(=O)O [Methyldopa] | 3.3 | 0.1002 | not found on label | not found on label |  | hazard classification in the hazard scoring system [5]: high hazard
Cc1cc2c(s1)Nc1ccccc1N=C2N1CCN(C)CC1 [Olanzapine] |  |  |  |  | No risk | 

Molecule | Free Cmax highest [1] [µM] | Percentage seizures of total number of ADRs [2] [%] | SIDER ADR on-/off-label [3] | FDA prescription information at therapeutic dose (Convulsion/ Seizure/Lower the seizure threshold/withdrawal) [4] | Classification* (degree of seizure risk) [6] | other results
C1CCc2nnnn2CC1 [Pentylenetetrazole] |  |  |  |  | Risk | 
FC(F)(F)c1ccc(CNc2ccc(Cc3c[nH]c4ncc(Cl)cc34)cn2)cn1 [Pexidartinib] | 0.1 | 0.5386 |  | not found on label | Risk | 
O=C1NC(=O)C(c2ccccc2)(c2ccccc2)N1 [Phenytoin] | 8.127 | 8.075 | infrequent (0.1-1%) | On label |  | hazard classification in the hazard scoring system [5]: hazards; also recorded: high hazard
CC[C@@H]1C(=O)OC[C@@H]1Cc1cncn1C [Pilocarpine] | 0.375 | 0.1965 | not found on label | not found on label |  | 
[Br-].[K+] [Potassium bromide] |  | 4.831 |  | not found on label | No risk | 
CC(CN1c2ccccc2Sc2ccccc21)N(C)C (centres unmarked) [Promethazine] | 0.072 | 1.639 | no frequency information | on label |  | 
Cc1ncc(CO)c(CO)c1O [Pyridoxine] | 0.28 | 0.4851 | not found on label | not found on label |  | 
CCN(CC)CCCC(C)Nc1c2ccc(Cl)cc2nc2ccc(OC)cc12 (centres unmarked) [Quinacrine] | 0.13 | 1.17 |  | not found on label | No risk | 
Cc1ccc(COC(=O)N2CC[C@H](CNc3ncccn3)[C@H](F)C2)cc1 [Rislenemdaz (CERC-301), Rislenemdaz] | 0.004 |  |  |  | Risk | 
CS(=O)(=O)c1ccc(C2=C(c3ccccc3)C(=O)OC2)cc1 [Rofecoxib] | 0.13 | 1.2136 | not found on label |  | No risk | 
CNC(=O)c1cc(Oc2ccc3nc(N[C@@H]4CCCC[C@H]4O)sc3c2)ccn1 [Sotuletinib] |  |  |  |  | Risk | 
O=C1C[C@@H]2OCC=C3CN4CC[C@]56c7ccccc7N1[C@H]5[C@H]2[C@H]3C[C@H]46 [Strychnine] |  | 0 |  |  | Risk | 
NC[C@H]1CC[C@H](C(=O)O)CC1 [Tranexamic Acid] | 101.25 | 1.5 | postmarketing | On label |  | free Cmax concentration in man [1]: > 100 µM
OC(CCN1CCCCC1)(c1ccccc1)C1CCCCC1 (centres unmarked) [Trihexyphenidyl] | 0.024 | 0.7979 | not found on label | not found on label |  | 
CN1[C@@H]2CC[C@H]1C[C@@H](OC(=O)c1c[nH]c3ccccc13)C2 [Tropisetron] | 0.08 | 1.067 | not found on label |  | No risk | 
CCCC(CCC)C(=O)O [Valproic acid] | 92 | 4.854 | not found on label | on label |  | 
O=C1c2ccccc2C(Cc2ccncc2)(Cc2ccncc2)c2ccccc21 [XE-991] |  |  |  |  | Risk | 
CCCCCCOc1nsnc1C1=CCCN(C)C1 [Xanomeline] |  |  |  |  | Risk | 
Tertiapin |  |  |  |  | Low risk | 
